Among the data in paper PMC12040169 (PLOS Biology, 2025) are viability values, retold here.

The first series in a line: in vitro. To be noted: human, hela cells, % viability.
For `Cc1c(C(=O)N2CCC(c3ccncc3)CC2)oc2ccccc12` [CBK282413], the viability at 28.5 h, 10 µM came to 109%.

Regarding `Cc1ccc(N(Cc2ccc(C(=O)N(C)Cc3ccccc3)cc2)S(C)(=O)=O)cc1C` [CBK263795], the viability at 28.5 h, 10 µM is 81.5%.

Consider `c1ccc(-c2csc(Nc3cccnc3)n2)nc1` [CBK267184], for which the viability at 28.5 h, 10 µM came out at 107%.

On to `CC(NC(=O)Nc1ccc(C(=O)NC(C)(C)C)cc1)c1cccc(Cl)c1` (stereo not drawn) [CBK298265], for which the viability at 28.5 h, 10 µM worked out at 87.8%.

`Cc1ccc(NS(=O)(=O)c2c(Br)sc3ccnc(N4CCN(C)CC4)c23)cc1` [CBK034654C]: the viability at 28.5 h, 10 µM is 103%.

For the molecule `Cc1cnc(CNC(=O)c2cnoc2-c2ccccc2)cn1` [CBK154926], the viability at 28.5 h, 10 µM is 98%.

`O=C(C1=C(O)C(=O)N(CCCn2ccnc2)C1c1ccccc1)c1cccs1` (stereo not drawn) [CBK264484]: the viability at 28.5 h, 10 µM came to 110%.

For `Cc1cc(C)nc(Nc2ccc(C3CCCN(C(=O)C(C)(C)c4cccc(F)c4)C3)nc2)n1` (stereo not drawn) [CBK286007], the viability at 28.5 h, 10 µM came to 85.2%.

In the case of `COc1ccc([C@@]23CC[C@@H](NC(=O)Nc4cccc(Cl)c4)C[C@@H]2CN(C)C3)cc1OC` [CBK081375T], the viability at 28.5 h, 10 µM came to 96.8%.

`CN(C)c1ccc(-c2cn3ccnc3c(NC3CC3)n2)cc1` [CBK037894]: the viability at 28.5 h, 10 µM came to 103%.

As for `COc1ccccc1CC(=O)Nc1ccc(OCC(=O)O)cc1` [CBK264194], the viability at 28.5 h, 10 µM was found to be 99.1%.

Turning to `COc1ccc2c(c1)c(C(NCc1cccc(C(F)(F)F)c1)C(N)=O)nn2Cc1ccccc1` (stereo not drawn) [CBK010715], the viability at 28.5 h, 10 µM is 100%.

Turning to `S=C(Nc1ccccc1)NC1C2CN3CCN(C2)CC1(c1ccccc1)C3` (stereo not drawn) [CBK261936], the viability at 28.5 h, 10 µM is 88.6%.

Turning to `COc1ccc(C2CCN(CC(=O)N3CCCC3)CC2)cc1` [CBK283561], the viability at 28.5 h, 10 µM is 101%.

As for `Cn1cncc1CN1C[C@@H]2CCCN2C[C@@H]1Cc1ccccc1` [CBK283027], the viability at 28.5 h, 10 µM was 91.9%.

For `COc1ccc2cc(C#N)c(SCC(=O)Nc3ccc(F)cc3)nc2c1` [CBK068765], the viability at 28.5 h, 10 µM was determined as 85.7%.

Regarding `CCn1ncc(S(=O)(=O)N2CCCC(c3cccc(Cc4cccc(C)c4)n3)C2)c1C` (stereo not drawn) [CBK286244], the viability at 28.5 h, 10 µM came out at 97.7%.

In the case of `CC1CCc2c(sc3nc(SCC(=O)NC(c4ccccc4)c4ccccc4)nc(N)c23)C1` (stereo not drawn) [CBK267274], the viability at 28.5 h, 10 µM stood at 91.1%.

Consider `COc1cc(C)c(NC(=O)C(=S)NCc2ccco2)cc1C` [CBK268582], for which the viability at 28.5 h, 10 µM was 103%.

On to `COc1cc(C(=O)N2CCC3(CC2)CC(=O)c2ccc(C)cc2O3)cc(-c2ccc(OC)c(OC)c2)c1` [CBK168282], for which the viability at 28.5 h, 10 µM stood at 89.5%.

As for `O=C(NC1CCN(CC2(c3ccccc3)CC2)CC1)c1cc[nH]n1` [CBK285351], the viability at 28.5 h, 10 µM was 88.4%.

Turning to `Cc1nc(C(=O)N2CCC3(CCCCOc4ccccc4C(=O)NCCNC3=O)CC2)co1` [CBK292089], the viability at 28.5 h, 10 µM is 103%.

Turning to `Cc1nc(CNCc2c(C)nn(C)c2N(C)C)cs1` [CBK304808], the viability at 28.5 h, 10 µM is 95.3%.

Consider `COc1ccc([C@@]23CC[C@@H](NC(=O)c4ccc(F)c(C(F)(F)F)c4)C[C@@H]2N(C)CC3)cc1OC` [CBK074967T], for which the viability at 28.5 h, 10 µM turned out to be 93.6%.

Take `O=C(Cn1cccc2cc(-c3cccs3)nc1-2)NC1CC1` [CBK281897]: the viability at 28.5 h, 10 µM was 108%.

With `COc1ccc([C@@]23CCC(CC(=O)O)C[C@@H]2N(C)CC3)cc1OC` (stereo partly drawn) [CBK045765A], the viability at 28.5 h, 10 µM came to 107%.

For `COC[C@H]1CCCN1C(=O)Cn1[nH]c(C)c(Cc2c(Cl)cccc2Cl)c1=O` [CBK115407], the viability at 28.5 h, 10 µM is 103%.

Turning to `CN(C)S(=O)(=O)c1ccc(C(=O)C2=C(O)C(=O)N(Cc3cccnc3)C2c2ccccc2)cc1` (stereo not drawn) [CBK264667], the viability at 28.5 h, 10 µM came out at 100%.

For `Cc1cccc(-c2ccc3c(c2)C(=O)N2CC[C@H](NC(=O)N4CCOCC4)[C@H]2C(=O)N3)c1C` [CBK289347], the viability at 28.5 h, 10 µM turned out to be 88.1%.

`CN1CCC[C@H]1C(=O)Nc1ccc2[nH]ccc2c1` [CBK159699]: the viability at 28.5 h, 10 µM came to 97.6%.

For `Cc1nc(S(=O)(=O)N2CCC(C(=O)N3CCCCCC3)CC2)cn1C` [CBK305765], the viability at 28.5 h, 10 µM worked out at 99.3%.

`COc1ccc(S(=O)(=O)N2CCN(C(C(=O)O)c3ccc(C)cc3)CC2)cc1` (stereo not drawn) [CBK296753]: the viability at 28.5 h, 10 µM amounted to 104%.

For the molecule `NS(=O)(=O)c1ccc(N2C(=O)C(O)=C(C(=O)c3ccc(Cl)cc3)C2c2ccc([N+](=O)[O-])cc2)cc1` (stereo not drawn) [CBK263758], the viability at 28.5 h, 10 µM turned out to be 97.2%.

`Cc1nc(CCCn2cnc3ncccc3c2=O)sc1C` [CBK306953]: the viability at 28.5 h, 10 µM came out at 106%.

With `COC(=O)c1ccc(NC(=O)c2ccccc2-c2ccccc2C(=O)O)cc1` [CBK265759], the viability at 28.5 h, 10 µM amounted to 110%.

Turning to `COc1ccc(C2NC(C(=O)O)C3C(=O)N(c4ccc(C)cc4)C(=O)C23)c(OC)c1` (stereo not drawn) [CBK287233], the viability at 28.5 h, 10 µM was found to be 90.2%.

As to `O=[N+]([O-])c1ccc(NCCNc2nc3ccccc3nc2N2CCOCC2)cc1` [CBK266342], the viability at 28.5 h, 10 µM is 107%.

As for `O=C(C1=C(O)C(=O)N(CCCN2CCOCC2)C1c1cccnc1)c1cc2ccccc2o1` (stereo not drawn) [CBK266147], the viability at 28.5 h, 10 µM came to 104%.

Consider `CC1(C)CC(=O)C2=C(C1)NC(SCC(=O)Nc1ccc(S(=O)(=O)N3CCCCC3)cc1)=C(C#N)C2c1ccco1` (stereo not drawn) [CBK266695], for which the viability at 28.5 h, 10 µM stood at 94.3%.

Regarding `O=C(O)c1ccccc1C(=O)Nc1c(-c2ccccc2)nc2ccccn12` [CBK287041], the viability at 28.5 h, 10 µM is 96.2%.

In the case of `Cc1ccc(C2(CN3CCC(NC(=O)CO)CC3)CCCC2)cc1` [CBK282628], the viability at 28.5 h, 10 µM is 88.5%.

In the case of `O=S(=O)(N1CCCCCC1)N1CCN(S(=O)(=O)N2CCCCCC2)CC1` [CBK269210], the viability at 28.5 h, 10 µM turned out to be 88.3%.

In the case of `CNCc1cc(Br)ccc1OC` [CBK027857], the viability at 28.5 h, 10 µM was 113%.

As to `O=C1CCc2c(Cc3c(Cl)cccc3Cl)c(O)nn21` [CBK083470], the viability at 28.5 h, 10 µM is 91.3%.

As for `CC(=O)Nc1ccc(CN(C)c2c(C)nc3c(OCC4CCCCC4)cccn23)cc1` [CBK147379], the viability at 28.5 h, 10 µM worked out at 93.5%.

For the molecule `Cc1cc(=O)[nH]c(SCc2cc(=O)c3ccccc3[nH]2)n1` [CBK294410], the viability at 28.5 h, 10 µM was found to be 86.3%.

For the molecule `O=C(CN1CCOCC1)NCCNc1c(Cl)c(Cl)c(Cl)c(Cl)c1Cl` [CBK266851], the viability at 28.5 h, 10 µM was found to be 84.7%.

With `Cc1ccc2c(N)c(C(=O)c3ccc4c(c3)OCCO4)sc2n1` [CBK270265], the viability at 28.5 h, 10 µM came out at 84.2%.

In the case of `Cc1cccc(OCc2nnc(SCC(=O)Nc3cccc4ccccc34)o2)c1C` [CBK267153], the viability at 28.5 h, 10 µM was determined as 108%.

As for `COc1cc(C)c(Nc2cccc(-c3ccc(O)cc3)n2)cc1OC` [CBK037608], the viability at 28.5 h, 10 µM is 107%.

For `COCCN(C(=O)CCC(=O)NCCc1ccccc1)C1CCN(C)CC1` [CBK014576], the viability at 28.5 h, 10 µM came to 96.9%.

Turning to `COc1ccc(C)cc1S(=O)(=O)Nc1cc(N2CCNC(C(F)(F)F)C2)c2occc2c1` (stereo not drawn) [CBK073818C], the viability at 28.5 h, 10 µM is 104%.

As for `CC(CN1CCN(Cc2ccccc2)CC1)N(C(=O)c1ccoc1)c1ccccn1` (stereo not drawn) [CBK074861C], the viability at 28.5 h, 10 µM amounted to 92.1%.

The series is the same for the next values; noted with them: human, hela cells, % viability, bulk resorufin, single well.
Regarding `CSc1cc(C)c2c(c1)COC1(CCN(C(=O)c3ccco3)CC1)O2` [CBK061106], the viability at 28.5 h, 10 µM is 92.6%.

For orientation: viability means a read-out of living cells in per cent, often relative to untreated cells.
